Test results from ChEMBL document CHEMBL1201862, “PubChem BioAssay data set” (2004).
Several values for one entry are separate records, joined by “and”; a condition that tells them apart may be missing. Equal values may be shown once. Activity calls are given as the source filed them.

Assays:
HEK293 [1] = experiment: Cytotoxicity assay in HEK293 cells. [Related pubchem assays (depositor defined):AID1266, AID1269, AID1270, AID1271, AID1280, AID1281, AID1282, AID1283, AID1287, AID1289, AID1290, AID1291, AID1292, AID1293, AID1294, AID1295, AID1299, AID1302, AID1364, AID1365, AID1366, AID1367, AID1369, AID1370, AID1371, AID1372, AID1373, AID1374, AID1375, AID1384 …; type: functional, cell-based; details: Homo sapiens
HEK293 [2] = experiment: PMA/Ionomycin-induced IL-8 production in HEK293- NF-kB-Luc stable cells. [Related pubchem assays: 1299, 1295, 1375, 1287, 1281, 1293, 1291, 1289, 1280, 465, 1364, 1282, 1372, 1365, 1367, 1366, 1266, 1269, 1373, 1292, 1290, 1302, 1371, 1283, 1271, 1294, 1374, 1368, 1369 ]; type: functional, cell-based; details: Homo sapiens
HEK293 [3] = experiment: PMA/Ionomycin induced NF-kB luciferase assay in 293- NF-kB-Luc stable cells. [Related pubchem assays: 1299, 1270, 1295, 1375, 1287, 1281, 1293, 1291, 1289, 1280, 465, 1364, 1282, 1372, 1365, 1370, 1367, 1366, 1269, 1373, 1292, 1290, 1302, 1371, 1283, 1271, 1294, 1374, 1368, 1369 ]; type: functional, cell-based; details: Homo sapiens
[4] = target: Luciferin 4-monooxygenase (Photinus pyralis, UniProt P08659); experiment: In vitro luciferase assay using purified luciferase. [Related pubchem assays: 1299, 1270, 1295, 1375, 1287, 1281, 1293, 1291, 1289, 1280, 465, 1364, 1282, 1372, 1365, 1370, 1367, 1366, 1266, 1373, 1292, 1290, 1302, 1371, 1283, 1271, 1294, 1374, 1368, 1369 ]
Luciferin 4-monooxygenase, sequence (P08659 whole entry): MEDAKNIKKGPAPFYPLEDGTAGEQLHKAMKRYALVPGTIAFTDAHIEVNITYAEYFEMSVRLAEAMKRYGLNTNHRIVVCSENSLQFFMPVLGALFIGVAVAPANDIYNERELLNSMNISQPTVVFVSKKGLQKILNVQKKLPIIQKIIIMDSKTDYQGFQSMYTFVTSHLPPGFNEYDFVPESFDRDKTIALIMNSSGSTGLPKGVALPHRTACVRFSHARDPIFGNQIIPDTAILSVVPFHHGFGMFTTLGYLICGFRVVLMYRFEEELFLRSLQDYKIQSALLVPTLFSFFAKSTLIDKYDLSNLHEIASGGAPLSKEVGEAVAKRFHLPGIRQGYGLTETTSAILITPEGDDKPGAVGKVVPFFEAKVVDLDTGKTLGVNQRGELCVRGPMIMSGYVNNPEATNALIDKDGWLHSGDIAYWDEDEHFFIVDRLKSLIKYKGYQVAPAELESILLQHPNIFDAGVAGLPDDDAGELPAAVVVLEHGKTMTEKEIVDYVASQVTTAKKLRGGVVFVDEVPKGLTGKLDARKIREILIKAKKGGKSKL

HEK293 [5] = experiment: TNF Induced NF-kB Luciferase in 293-NF-kB-Luc Stable Cells. [Related pubchem assays: 1266, 1299, 1269, 1373, 1292, 1290, 1302, 1371, 1283, 1270, 1295, 1271, 1375, 1294, 1374, 1281, 1293, 1291, 1289, 1280, 465, 1368, 1364, 1282, 1372, 1365, 1369, 1370, 1367, 1366 ]; type: functional, cell-based; details: Homo sapiens
[6] = target: T1, Kappa-type opioid receptor (Homo sapiens, UniProt P41145); type: functional
T1 sequence (P41145 whole entry): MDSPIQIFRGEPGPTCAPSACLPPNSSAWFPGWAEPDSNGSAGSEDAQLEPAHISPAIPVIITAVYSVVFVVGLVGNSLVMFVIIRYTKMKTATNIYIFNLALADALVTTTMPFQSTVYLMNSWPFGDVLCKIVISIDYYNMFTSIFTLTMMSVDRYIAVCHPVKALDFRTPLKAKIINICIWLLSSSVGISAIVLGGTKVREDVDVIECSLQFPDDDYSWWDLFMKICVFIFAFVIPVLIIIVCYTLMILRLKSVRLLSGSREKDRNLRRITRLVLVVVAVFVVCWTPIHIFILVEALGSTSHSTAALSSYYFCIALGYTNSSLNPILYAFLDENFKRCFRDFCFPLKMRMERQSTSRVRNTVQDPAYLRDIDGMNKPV

[7] = target: T2, Delta-type opioid receptor (Homo sapiens, UniProt P41143); experiment: HTS Image-Based Screen for Antagonists of the DOR Receptor. [Related pubchem assays (depositor defined):AID1777, AID1785, AID1786, AID2133]; type: functional
T2 sequence (P41143 whole entry): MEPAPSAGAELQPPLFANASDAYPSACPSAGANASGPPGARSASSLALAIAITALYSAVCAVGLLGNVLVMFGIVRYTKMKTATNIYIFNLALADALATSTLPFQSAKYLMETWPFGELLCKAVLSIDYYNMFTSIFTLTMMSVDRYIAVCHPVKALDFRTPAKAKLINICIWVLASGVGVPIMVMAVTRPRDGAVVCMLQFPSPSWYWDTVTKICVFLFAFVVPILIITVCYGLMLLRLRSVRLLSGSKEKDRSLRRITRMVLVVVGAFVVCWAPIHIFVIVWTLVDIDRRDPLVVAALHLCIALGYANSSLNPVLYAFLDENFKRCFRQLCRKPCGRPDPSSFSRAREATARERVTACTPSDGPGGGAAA

[8] = target: T2, Delta-type opioid receptor; experiment: HTS Image-Based Screen for Agonists of the DOR Receptor. [Related pubchem assays (depositor defined):AID1777, AID1786, AID2133]; type: functional
Mu-type opioid receptor [9] = target: T3, Mu-type opioid receptor (Homo sapiens, UniProt P35372); experiment: HTS Image-Based Screen for Agonists of the MOR Receptor. [Related pubchem assays (depositor defined):AID1777, AID1785, AID1786, AID2133]; type: functional
T3 sequence (P35372 whole entry): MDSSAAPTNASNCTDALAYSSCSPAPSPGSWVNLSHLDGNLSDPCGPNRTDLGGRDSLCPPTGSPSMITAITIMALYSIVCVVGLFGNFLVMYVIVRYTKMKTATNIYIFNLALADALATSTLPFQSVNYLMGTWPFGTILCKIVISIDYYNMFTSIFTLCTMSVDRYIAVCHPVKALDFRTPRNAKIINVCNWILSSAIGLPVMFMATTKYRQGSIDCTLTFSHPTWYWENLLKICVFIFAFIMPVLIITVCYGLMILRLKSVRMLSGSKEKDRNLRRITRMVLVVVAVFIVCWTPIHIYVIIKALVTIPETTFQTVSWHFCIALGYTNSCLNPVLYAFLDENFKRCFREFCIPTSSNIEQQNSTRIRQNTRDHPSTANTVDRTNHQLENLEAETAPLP

Cytochrome P450 2C19 = Cytochrome P450 2C19 (Homo sapiens, UniProt P33261); experiment: Cytochrome panel assay with activity outcomes. Panel member name: p450-cyp2c19 Compounds with AC50 equal or less than 10 uM are considered active; type: functional; details: read-out: AC50
Cytochrome P450 2C19, sequence (P33261 whole entry): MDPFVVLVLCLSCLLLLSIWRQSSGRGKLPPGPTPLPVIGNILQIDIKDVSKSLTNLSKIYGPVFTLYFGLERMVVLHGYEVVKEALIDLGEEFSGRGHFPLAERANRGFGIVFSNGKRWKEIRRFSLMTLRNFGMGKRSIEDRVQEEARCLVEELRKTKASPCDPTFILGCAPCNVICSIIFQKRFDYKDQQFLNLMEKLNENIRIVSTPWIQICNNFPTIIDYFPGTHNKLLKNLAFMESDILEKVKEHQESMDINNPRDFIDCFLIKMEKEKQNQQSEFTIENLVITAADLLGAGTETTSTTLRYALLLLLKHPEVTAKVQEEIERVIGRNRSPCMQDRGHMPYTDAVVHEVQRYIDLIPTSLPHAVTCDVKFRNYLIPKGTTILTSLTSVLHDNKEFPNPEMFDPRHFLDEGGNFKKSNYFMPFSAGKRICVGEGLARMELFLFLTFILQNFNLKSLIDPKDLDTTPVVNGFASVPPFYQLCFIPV

[10] = target: T1, Kappa-type opioid receptor; type: functional; remark: listed apart in the source
Cytochrome P450 2C9 = Cytochrome P450 2C9 (Homo sapiens, UniProt P11712)
Cytochrome P450 2C9, sequence (P11712 whole entry): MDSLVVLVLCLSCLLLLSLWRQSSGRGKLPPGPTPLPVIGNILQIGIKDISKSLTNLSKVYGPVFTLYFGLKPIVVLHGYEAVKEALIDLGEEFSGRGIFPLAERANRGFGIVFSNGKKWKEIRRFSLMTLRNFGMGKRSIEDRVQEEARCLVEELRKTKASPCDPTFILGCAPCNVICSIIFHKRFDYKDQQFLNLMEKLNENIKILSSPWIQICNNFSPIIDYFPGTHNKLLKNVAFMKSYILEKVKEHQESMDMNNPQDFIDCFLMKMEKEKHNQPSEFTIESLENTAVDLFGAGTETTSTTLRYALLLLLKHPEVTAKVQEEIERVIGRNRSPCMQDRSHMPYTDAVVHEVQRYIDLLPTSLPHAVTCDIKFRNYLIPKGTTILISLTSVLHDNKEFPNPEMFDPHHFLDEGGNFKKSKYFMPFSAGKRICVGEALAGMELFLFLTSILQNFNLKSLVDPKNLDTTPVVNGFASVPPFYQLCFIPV

[11] = target: T1, Kappa-type opioid receptor; experiment: KOR agonist analogs, imaging readout, SAR follow-up, image-based (AID 2359); type: functional
[12] = target: T1, Kappa-type opioid receptor; type: functional; remark: listed apart in the source
[13] = target: T2, Delta-type opioid receptor; experiment: DOR agonists, SAR follow-up, image-based (AID 2370); type: functional
[14] = target: T2, Delta-type opioid receptor; experiment: SAR Analysis of Antagonists of the DOR Receptor using an Image-Based Assay - Set 3. [Related pubchem assays (depositor defined):AID1777, AID1785]; type: functional
Mu-type opioid receptor [15] = target: T3, Mu-type opioid receptor; experiment: SAR Analysis of Antagonists of the MOR Receptor using an Image-Based Assay - Set 3. [Related pubchem assays (depositor defined):AID1777, AID1785, AID1786, AID1966, AID2133, AID2136, AID2284, AID2285, AID2420]; type: functional
Beta-galactosidase = Beta-galactosidase (Escherichia coli, UniProt Q8VNN2); type: functional
Beta-galactosidase, sequence (Q8VNN2 whole entry): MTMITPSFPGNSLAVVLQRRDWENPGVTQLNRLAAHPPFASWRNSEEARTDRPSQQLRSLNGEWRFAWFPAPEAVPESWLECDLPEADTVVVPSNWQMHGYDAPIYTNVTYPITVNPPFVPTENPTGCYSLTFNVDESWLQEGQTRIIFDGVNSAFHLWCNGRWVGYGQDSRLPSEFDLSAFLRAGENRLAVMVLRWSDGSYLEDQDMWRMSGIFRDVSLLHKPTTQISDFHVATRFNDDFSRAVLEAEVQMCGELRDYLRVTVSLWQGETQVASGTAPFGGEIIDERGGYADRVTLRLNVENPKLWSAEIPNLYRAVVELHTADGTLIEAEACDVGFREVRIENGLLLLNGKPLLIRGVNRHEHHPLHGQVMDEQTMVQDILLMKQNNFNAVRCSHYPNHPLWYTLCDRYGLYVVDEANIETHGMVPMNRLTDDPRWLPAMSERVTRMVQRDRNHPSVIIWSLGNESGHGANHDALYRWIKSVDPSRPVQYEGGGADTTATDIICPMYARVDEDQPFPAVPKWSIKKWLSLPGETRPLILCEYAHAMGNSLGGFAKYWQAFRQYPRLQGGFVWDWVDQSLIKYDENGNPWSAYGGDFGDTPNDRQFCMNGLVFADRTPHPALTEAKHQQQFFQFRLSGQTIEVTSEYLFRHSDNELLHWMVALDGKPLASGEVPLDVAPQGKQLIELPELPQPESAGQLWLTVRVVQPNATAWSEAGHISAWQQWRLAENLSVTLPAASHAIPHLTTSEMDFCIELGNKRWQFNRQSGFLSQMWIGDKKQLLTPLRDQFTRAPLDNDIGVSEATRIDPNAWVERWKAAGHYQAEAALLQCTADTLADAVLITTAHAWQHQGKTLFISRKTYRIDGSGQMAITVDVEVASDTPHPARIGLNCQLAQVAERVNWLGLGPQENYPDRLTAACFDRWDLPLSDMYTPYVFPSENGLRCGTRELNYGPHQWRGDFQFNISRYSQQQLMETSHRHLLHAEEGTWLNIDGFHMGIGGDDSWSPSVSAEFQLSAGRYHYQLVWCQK

Mu-type opioid receptor [16] = target: T3, Mu-type opioid receptor; experiment: MOR antagonists, SAR follow-up, image-based (AID 2420); type: functional;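 further: compounds added before stimulation of receptor with agonist DAMGO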
[17] = target: T1, Kappa-type opioid receptor; experiment: KOR antagonists by imaging, SAR follow-up, image-based (AID 2348); type: functional
[18] = target: T1, Kappa-type opioid receptor; experiment: SAR analysis of Antagonists of the Kappa Opioid Receptor (KOR) using an Image-Based Assay - Set 3. [Related pubchem assays (depositor defined):AID1777, AID1785]; type: functional
[19] = target: T1, Kappa-type opioid receptor; type: functional; remark: listed apart in the source
[20] = target: T2, Delta-type opioid receptor; experiment: DOR antagonists, SAR follow-up, image-based (AID 2357); type: functional
[21] = target: T1, Kappa-type opioid receptor; experiment: SAR analysis of Antagonists of the Kappa Opioid Receptor (KOR) using an Image-Based Assay - Set 4. [Related pubchem assays (depositor defined):AID1777, AID1785]; type: functional
Mu-type opioid receptor [22] = target: T3, Mu-type opioid receptor; experiment: MOR agonists by imaging, SAR follow-up, image-based (AID 2352); type: functional
[23] = target: T1, Kappa-type opioid receptor; experiment: kappa opioid receptor blockers, cell-based, luminescence, beta-arrestin, SAR follow-up (AID 2285); type: functional
[24] = target: T1, Kappa-type opioid receptor; experiment: SAR analysis of small molecule antagonists of the kappa opioid receptor via a luminescent beta-arrestin assay - Set 3. [Related pubchem assays (depositor defined):AID1777, AID1778, AID1785, AID1786, AID1966, AID2133, AID2136, AID2285, AID2495]; type: functional
[25] = target: G-protein coupled receptor 55 (Homo sapiens, UniProt Q9Y2T6); experiment: GPR55 agonists via beta-arrestin recruitment, primary screen, imaging, U2OS cells, beta-arrestin-GFP redistribution (AID 1961); type: functional
G-protein coupled receptor 55, sequence (Q9Y2T6 whole entry): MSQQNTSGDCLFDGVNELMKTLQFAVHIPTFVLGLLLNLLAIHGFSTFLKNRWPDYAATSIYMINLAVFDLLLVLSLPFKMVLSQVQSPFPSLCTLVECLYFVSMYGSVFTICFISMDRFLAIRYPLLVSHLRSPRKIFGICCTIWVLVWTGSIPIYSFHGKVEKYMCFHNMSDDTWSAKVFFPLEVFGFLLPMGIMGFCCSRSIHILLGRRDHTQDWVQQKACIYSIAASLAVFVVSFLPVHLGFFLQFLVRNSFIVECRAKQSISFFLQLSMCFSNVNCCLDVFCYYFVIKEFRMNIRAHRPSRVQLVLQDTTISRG

## CCOc1ccc(N(CC(=O)Nc2ccccc2Br)S(C)(=O)=O)cc1
HEK293 [1]
  EC50: 15.5 µM (inactive)
HEK293 [2]
  EC50: 8.11 µM (not active)
HEK293 [3]
  EC50: 2.78 µM (active)
[4]
  EC50: > 8 µM (not active)
HEK293 [5]
  EC50: > 8 µM (not active)

## CCC(C)(C(=O)NC1CCCC1)N(Cc1ccco1)C(=O)c1ccccn1 (stereo unspecified)
[6]
  EC50: 11.4 µM
[7]
  IC50: > 32 µM (inactive)
[8]
  EC50: > 32 µM (inactive)
Mu-type opioid receptor [9]
  EC50: > 32 µM (inactive)
Cytochrome P450 2C19
  AC50: 7.94 µM (inconclusive)
[10]
  EC50: 9.05 µM
Cytochrome P450 2C9
  AC50: 12.6 µM (inconclusive)

## COc1ccc(N2CCN(CCCNC(=O)Cn3c(=O)c4cccn4c4cccnc43)CC2)cc1
[11]
  EC50: > 32 µM (inactive)
[12]
  IC50: 1.32 µM
[13]
  EC50: > 32 µM (inactive)
[7]
  IC50: > 32 µM (inactive)
[8]
  EC50: > 32 µM (inactive)
Mu-type opioid receptor [9]
  EC50: > 32 µM (inactive)
[14]
  IC50: > 32 µM (inactive)
Mu-type opioid receptor [15]
  IC50: > 32 µM (inactive)
Beta-galactosidase
  EC50: > 31.5 µM (inactive)
Mu-type opioid receptor [16]
  IC50: > 32 µM (inactive)
[17]
  IC50: 4.14 µM (active)
[18]
  IC50: 243 nM (active) and 670 nM (active)
[19]
  IC50: 2.17 µM (active)
[20]
  IC50: > 32 µM (inactive)
[21]
  IC50: 0.205 µM (active)
Mu-type opioid receptor [22]
  EC50: > 32 µM (inactive)
[23]
  IC50: 1.67 µM (active)
[24]
  IC50: 1.07 µM (active) and 3.05 µM (active)

## CN1CCN(c2nc(Nc3ccccc3)nc(N)c2[N+](=O)[O-])CC1
[25]
  EC50: 10.7 µM (inactive)
